Results published in patent US10814036B2, “Drug-eluting live tissue for transplantation” (BAYLOR UNIVERSITY, priority 2016, dated 2020).
Entries after “also recorded” stand apart in the source; their conditions may differ.

Experiments:
TLR4 [1] = molecular target: T1, TLR4 (Mus musculus, UniProt Q9QUK6); assay: LPS challenge of drug-eluting mouse islets, IL-6 expression (Example 15); type: cell-based; details: for protection from LPS challenge (IL-6 expression): 24 h after modification or treatment
T1 construct: from tissue; host or cells: pancreatic islets of C57BL/6 mice
T1 sequence (Q9QUK6 26-835): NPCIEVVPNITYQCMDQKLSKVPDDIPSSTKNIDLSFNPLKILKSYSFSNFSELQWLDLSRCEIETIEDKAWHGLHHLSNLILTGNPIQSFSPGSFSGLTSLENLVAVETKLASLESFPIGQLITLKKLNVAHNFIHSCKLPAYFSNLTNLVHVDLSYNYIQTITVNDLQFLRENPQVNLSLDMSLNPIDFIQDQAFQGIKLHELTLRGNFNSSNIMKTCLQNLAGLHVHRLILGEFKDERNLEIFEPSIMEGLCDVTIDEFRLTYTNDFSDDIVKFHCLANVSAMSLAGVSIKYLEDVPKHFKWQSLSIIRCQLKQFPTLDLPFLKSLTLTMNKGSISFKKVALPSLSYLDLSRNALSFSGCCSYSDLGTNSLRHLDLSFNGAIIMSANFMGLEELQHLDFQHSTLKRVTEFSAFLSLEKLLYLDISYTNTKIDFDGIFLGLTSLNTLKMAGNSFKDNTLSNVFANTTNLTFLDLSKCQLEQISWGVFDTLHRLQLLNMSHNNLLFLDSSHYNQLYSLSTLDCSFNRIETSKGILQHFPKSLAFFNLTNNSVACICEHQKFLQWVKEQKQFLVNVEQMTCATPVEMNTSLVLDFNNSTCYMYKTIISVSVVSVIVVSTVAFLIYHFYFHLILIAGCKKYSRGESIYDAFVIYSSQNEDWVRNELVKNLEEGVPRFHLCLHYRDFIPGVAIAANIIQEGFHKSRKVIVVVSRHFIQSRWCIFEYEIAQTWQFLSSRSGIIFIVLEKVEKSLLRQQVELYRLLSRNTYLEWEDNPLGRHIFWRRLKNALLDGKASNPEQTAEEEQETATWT
Method: (§1) In order to study the function and efficacy of the cleavable prodrug, in vitro experiments were performed challenging mouse islets with LPS at different times post-modification. […] HEK Blue hTLR4 reporter cells were treated with either free TAK-242 or the TAK-PhSO2-Linker prodrug, followed by LPS challenge.
(§2) Data represented as means±SEM (n=3 per group). Statistical significance determined by two-tailed unpaired t test. n.s. means not significant.

[2] = test system: streptozotocin-induced diabetes; assay: Syngeneic islet transplant in streptozotocin-induced diabetic mice; type: in vivo, C57BL/6 mice
Method: With the promising in vitro results described above, islet transplantation experiments were performed in a syngeneic wild-type C57BL/6 streptozotocin-induced diabetes model. Recipient male C57BL/6 mice 6-7 weeks old were made diabetic by a single intraperitoneal injection of streptozotocin (200 mg/kg; Sigma-Aldrich). Diabetic mice are defined as having a nonfasting blood glucose >400 mg/dL for 2 consecutive days. Prior to transplantation, islets were untreated, pretreated with 3 μM TAK-242, or modified with TAK-PhSO2-Linker as described above. Diabetic C57BL/6 mice were anesthetized under isofluorane, and a field between the rib cage and pelvis on the left side was disinfected by 1% providone iodine scrub and 70% ethanol. A minimal incision (˜8 to 10 mm) into the peritoneum was made to expose the kidney, and a small cut (˜2 mm) was made in the kidney capsule using a 30G needle. Then a flame-blunted glass pipette tip was inserted into the kidney capsule through the cut to create a pocket between the renal cortex and capsule. Islets were then injected into the pocket via PE-50 polyethylene tubing (Becton Dickinson) connected to a 1 mL syringe filled with RPMI 1640 driven by an NE-300 syringe pump (New Era Pump Systems). At the completion of islet infusion, the incision was closed with 4-0 violet monofilament (Ethicon) via continuous nonlocking sutures. After closing, mice received a 0.1 mg/kg bolus of buprenorphine subcutaneously near the incision. Engraftment success was measured by nonfasting blood glucose measurements 5 times a week over a 4-week period with a Breeze 2 Glucose Monitor (Bayer). Mice were considered cured on the first day of two consecutive glucose measurements below 200 mg/dL (˜11 mM).
Diabetic mice were separated into untreated (n=4), TAK-242 (n=6), and TAK-PhO2-Linker (n=6) groups. A marginal dose of ˜100 islets was determined by titrating doses of TAK-242-treated islets. […] Diabetic C57BL/6 mice were transplanted with (FIG. 33A) 200, (FIG. 33B) 150, or (FIG. 33C) 100 TAK-242-treated islets. Blood glucose was monitored for 4 weeks before IPGTT on day 30 and at nephrectomy on day 35. […] This marginal dose was transplanted into the kidney subcapsular space in each group, and blood glucose was monitored for 4 weeks.

TLR4 [3] = molecular target: T1, TLR4; assay: LPS challenge of mouse islets, RT-PCR gene expression and multiplex cytokine analysis; type: cell-based, C57BL/6 mice
Method: To initially investigate whether free TAK-242 can protect islets from TLR4-mediated inflammation, inflammatory responses in islets from C57BL/6 mice challenged with the canonical TLR4 ligand lipopolysaccharide (LPS) were examined. As discussed in detail below, islets were treated with TAK-242 (3 μM for 30 min) before a 24-h challenge with a high dose of LPS (2 μg/mL). After 24 h, culture media was analyzed by multiplex assay, and mRNA was isolated from islet cells for analysis by real-time polymerase chain reaction (RT-PCR).
Materials and Methods. After overnight culture, islets were washed in Dulbecco's PBS (Caisson Labs, Smithfield, Utah, USA) before treatment with TAK-242 (3 μM, 30 min; MedchemExpress) and 2 μg/mL LPS-EB (Ultrapure from Escherichia coli O111:B4; Invivogen) for 24 h at 37° C. and 5% CO2. Islets were washed once with cold Dulbecco's PBS immediately after treatment, and total RNA was isolated from samples using TRIzol […] and converted to cDNA using a high capacity cDNA reverse transcription kit (Applied Biosystems) following manufacturer protocols. Quantitative expression of genes of interest was determined using RT2 SYBR Green qPCR master mix (Qiagen) on a Bio-Rad CFX Connect (Bio-Rad) with the following program: 95° C., 10 min and 40 cycles of 95° C., 15 sec, 60° C., 1 min. Primers for quantitative real-time PCR analysis were purchased from commercially available stock from Integrated DNA Technologies (Coralville). Relative gene expression was calculated using the 2-ΔΔCT method normalized to 18S mRNA. Cytokines from assay culture media were analyzed using Milliplex MCYTOMAG-70K Assay (EMD Millipore). Samples were prepared following manufacturer guidelines. Analysis was performed after overnight incubation at 4° C. on a Luminex 200 (Luminex). Samples were assayed in triplicate and analyzed in triplicate for cDNA or in duplicate for multiplex assay.

TLR4 [4] = molecular target: T1, TLR4; assay: Extended protection of modified islets, IL-6 mRNA after LPS challenge (Example 5); type: cell-based, murine; details: LPS 2 ug/mL 4 hrs, 24 hrs after treatment or islet modification; unprotected islets ~59-fold
Method: Compared to free TAK-242 pre-treatment, the TAK-Linker compound covalently attached to the islet surface provides extended protection.
First, islets were modified with either TAK-Linker or TAK-HexOH (1 hr NHS-DBCO followed by 1 hr TAK compounds), or treated with free TAK-242 (3 uM, 30 min @37° C.). All islets were rinsed with culture media (RPMI 1640, 10% FBS) prior to culturing. After overnight culture, the treated groups were challenged with LPS (2 ug/mL, 4 hrs @ 37° C.), a TLR4-specific agonist, and compared to unprotected islets (LPS) and unprotected/untreated control islets.
Total RNA was isolated from the islets for mRNA analysis. The gene expression of cytokine IL-6 was used for evaluation due to its key role in acute inflammation.

TLR4 [5] = details: human and murine models; depending on cell type; read-out: TLR4 inhibition IC50; cited from earlier work
hTLR4 = molecular target: T2, hTLR4 (Homo sapiens, UniProt O00206); assay: HEK Blue hTLR4 reporter cells, TLR4-mediated NFkB upregulation, colorimetric assay; type: cell-based; details: brief treatment, unconjugated compound
T2 construct: expressed in transfected cells; host or cells: HEK Blue hTLR4 reporter cells
Method: as §1, §2

MIN6 cells = assay: MTT viability assay in MIN6 beta cells; type: cell-based; details: days 1, 3 and 7, effective concentrations
Method: MIN6 cells were seeded in a 96-well plate at 15,000 cells per well in RPMI. After overnight culture, culture media was replaced with media containing the indicated TAK-242 concentrations. The control (0 nM TAK-242) contained 0.1% DMSO. Media was changed on day 3. On days 1, 3, and 7, an MTT viability assay was performed. Data are represented as means±SEM. P>0.05 for all samples (one-way ANOVA with Tukey's multiple-comparisons test).

TLR4 [6] = molecular target: T1, TLR4; assay: rHMGB1 challenge of mouse islets, gene expression analysis; type: cell-based, C57BL/6 mice; details: 1 μg/mL rHMGB1, 4 h, TAK-242 pretreatment
Method: Similar results were observed when islets were challenged with high-mobility group box 1 (HMGB1; FIG. 26), an endogenous damage-associated molecular pattern (DAMP) known to elicit acute inflammation through TLR4. […] Islets from C57BL/6 mice were challenged with 1 μg/mL rHMGB1 with or without TAK-242 pretreatment. After 4 h, total RNA was isolated from the islets for gene expression analysis. The proinflammatory genes (A) CXCL10 and (B) CCL2 were examined in the samples. Data represented as means±SEM. *P<0.05 (n=3 for all samples, unpaired two-tailed t test).

[7] = Linker prodrug stability and release kinetics in PBS by LC-MS; type: physicochemical; details: phosphate-buffered saline; PBS pH 7.4, 37° C.; read-out: half-life of TAK-PhSO2-Linker (release of free TAK-242) (converted)
Method: The stability of the linker prodrug was explored in this example. The TAK-PhSO2-Linker compound was incubated in phosphate-buffered saline (PBS; pH 7.4) at 37° C., and the solution sampled over the course of several days. Liquid chromatography-mass spectrometry (LC-MS) was used to identify and quantitate the compounds released from this prodrug.

T2 sequence (O00206 24-839): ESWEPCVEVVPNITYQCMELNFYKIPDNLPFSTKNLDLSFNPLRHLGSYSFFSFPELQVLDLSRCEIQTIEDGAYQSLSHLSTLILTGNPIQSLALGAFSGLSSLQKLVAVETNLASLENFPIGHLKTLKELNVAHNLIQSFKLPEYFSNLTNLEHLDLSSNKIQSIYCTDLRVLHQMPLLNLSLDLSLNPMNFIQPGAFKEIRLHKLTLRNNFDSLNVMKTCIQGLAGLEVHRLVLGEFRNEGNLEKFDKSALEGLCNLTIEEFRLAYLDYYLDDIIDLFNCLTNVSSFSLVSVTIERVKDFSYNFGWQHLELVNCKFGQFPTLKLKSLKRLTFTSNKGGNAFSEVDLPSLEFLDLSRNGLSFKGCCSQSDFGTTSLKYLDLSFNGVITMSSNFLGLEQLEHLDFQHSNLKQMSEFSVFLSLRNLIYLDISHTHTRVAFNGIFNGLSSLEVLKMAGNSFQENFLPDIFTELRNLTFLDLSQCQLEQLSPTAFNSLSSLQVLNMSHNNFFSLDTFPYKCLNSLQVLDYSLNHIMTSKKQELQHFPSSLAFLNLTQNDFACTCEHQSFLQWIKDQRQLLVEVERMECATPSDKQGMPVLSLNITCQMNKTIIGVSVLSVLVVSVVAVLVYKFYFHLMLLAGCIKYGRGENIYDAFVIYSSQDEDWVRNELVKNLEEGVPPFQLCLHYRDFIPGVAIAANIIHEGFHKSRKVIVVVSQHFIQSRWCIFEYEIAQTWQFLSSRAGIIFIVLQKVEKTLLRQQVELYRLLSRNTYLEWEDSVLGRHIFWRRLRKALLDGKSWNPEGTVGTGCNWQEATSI

Row | CXCL10 gene expression (TLR4 [3]; 3 μM TAK-242 pretreatment 30 min, 24 h after 2 μg/mL LPS, LPS alone 26-fold) [fold] | CCL2 gene expression (TLR4 [3]; 3 μM TAK-242 pretreatment 30 min, 24 h after 2 μg/mL LPS, LPS alone 55-fold) [fold] | increase in IL-6 expression (TLR4 [4]) [fold] | half-life [7] [h] | Structure (SMILES) | protection against LPS-mediated inflammation (IL-6) (TLR4 [1]; islet surfaces functionalized only, no prodrug) | cure time and glycemic control, islet dose titration ([2]; 100 TAK-242-treated islets) | mean nonfasting blood glucose ([2]; 100 islets, 4 weeks) | mean time to cure ([2]; 100 islets, cured = two consecutive glucose measurements below 200 mg/dL) [days] | cure time and glycemic control, islet dose titration ([2]; 200 and 150 TAK-242-treated islets) | proinflammatory cytokines IL-6, CXCL1, CXCL10, CCL2, TNF-α in culture media (TLR4 [3]; TAK-242 pretreatment, 24 h after LPS challenge, versus LPS alone) | IC50 (TLR4 [5]) [µM] | protection from LPS challenge (IL-6 expression) (TLR4 [1]) | inhibition of LPS-mediated inflammation (TLR4 [1]; immediately after treatment) | inhibition of TLR4-mediated NFkB upregulation after LPS challenge (hTLR4) | toxicity to beta cells (MTT viability) (MIN6 cells) | CXCL10 and CCL2 gene expression after rHMGB1 challenge (TLR4 [6])
1 |  |  |  |  | O=C(CCC(=O)N1Cc2ccccc2C#Cc2ccccc21)NCCOCCOCCOCCOCCC(=O)ON1C(=O)CCC1=O [NHS-PEG4-DBCO, dibenzocyclooctyne-PEG4-N-hydroxysuccinimidyl ester] | no protection against LPS-mediated inflammation |  |  |  |  |  |  |  |  |  |  | 
2 | 0.91 | 1.01 | ~32 |  | CCOC(=O)C1=CCCCC1S(=O)(=O)Nc1ccc(F)cc1Cl (stereo not shown) [TAK-242, ethyl 6-(N-(2-chloro-4-fluorophenyl)sulfamoyl)cyclohex-1-ene-1-carboxylate] |  | delayed cure time and exhibited significant average glycemic lability | demonstrated some control | 21.0 ± 4.9 | quick cure times and good glycemic control | significantly lower levels of these cytokines | 0.001 to 0.033 | beings to lose its effectiveness by 24 h; also recorded: provided protection from TLR4-mediated inflammation 24 hours post treatment | completely inhibit LPS-mediated inflammation | completely blocked LPS; also recorded: completely inhibited the upregulation of NFkB | negligible toxicity | protection of mouse islets against rHMGB1-mediated TLR4 inflammation
3 |  |  | ~3 | ~25 | CCOC(=O)C1=CCCCC1S(=O)(=O)N(C(=O)OC(CCCCCN=[N+]=[N-])CS(=O)(=O)c1ccccc1)c1ccc(F)cc1Cl (stereo not shown) [TAK-PhSO2-Linker] |  |  |  |  |  |  |  | significantly protected from LPS challenge; also recorded: significantly better than that of free TAK-242 alone; also recorded: significantly protected against LPS-mediated inflammation |  | negligible TLR4-antagonist activity; also recorded: provided no protection; also recorded: no significant protection |  | 
